Test results: patent US6737383B1, “Herbicidal oxadiazolidines” (priority 1999, dated 2004)

Columns and labels:
[1] = system: corn; test: Test B pre/postemergence corn; type: in vivo, Zea mays
In short: (§1)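 Response is a visual 0-to-10 score relative to untreated plants, where 0 means no effect and 10 means complete control, taken twelve to sixteen days after application. Treatments went onto soil at planting and onto foliage of 1- to 4-leaf plants, using a surfactant-containing non-phytotoxic solvent.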

[2] = system: wild oat; test: Test B pre/postemergence wild oat; type: in vivo, Avena fatua
In short: as §1

[3] = system: surinam grass; test: Test B pre/postemergence surinam grass; type: in vivo, Brachiaria decumbens
In short: as §1

[4] = system: smallflower flatsedge; test: Test B flood test smallflower flatsedge; type: in vivo, Cyperus difformis
In short: (§2)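 Each value is a visual injury score relative to controls, with 10 meaning complete control and 0 no effect. Evaluation took place twelve to sixteen days after the 2-leaf-stage plants were treated and kept in the greenhouse.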

[5] = system: rice; test: Test B flood test rice; type: in vivo, Oryza sativa
In short: as §2

[6] = system: pigweed; test: Test B pre/postemergence pigweed; type: in vivo, Amaranthus retroflexus
In short: as §1

[7] = system: soybean; test: Test B pre/postemergence soybean; type: in vivo, Glycine max
In short: as §1

[8] = system: blackgrass; test: Test B pre/postemergence blackgrass; type: in vivo, Alopecurus myosuroides
In short: as §1

[9] = system: velvetleaf; test: Test B pre/postemergence velvetleaf; type: in vivo, Abutilon theophrasti
In short: as §1

[10] = system: duck salad; test: Test B flood test duck salad; type: in vivo, Heteranthera limosa
In short: as §2

[11] = system: wheat; test: Test B pre/postemergence wheat; type: in vivo, Triticum aestivum
In short: as §1

[12] = system: purple nutsedge; test: Test B pre/postemergence purple nutsedge; type: in vivo, Cyperus rotundus
In short: as §1

[13] = system: crabgrass; test: Test B pre/postemergence crabgrass; type: in vivo, Digitaria sanguinalis
In short: as §1

[14] = system: bedstraw; test: Test B pre/postemergence bedstraw; type: in vivo, Galium aparine
In short: as §1

[15] = system: morningglory; test: Test B pre/postemergence morningglory; type: in vivo, Ipomoea hederacea
In short: as §1

[16] = system: giant foxtail; test: Test B pre/postemergence giant foxtail; type: in vivo, Setaria faberii
In short: as §1

[17] = Preemergence, Rate 62 g/ha, scale of 0 to 10 where 0 is no effect and 10 is complete control
[18] = Preemergence, Rate 250 g/ha, scale of 0 to 10 where 0 is no effect and 10 is complete control
[19] = Preemergence, Rate 500 g/ha, scale of 0 to 10 where 0 is no effect and 10 is complete control
[20] = Rate 62 g/ha, Postemergence, scale 0 to 10 (0 no effect, 10 complete control)
[21] = Rate 125 g/ha, Postemergence, scale of 0 to 10 where 0 is no effect and 10 is complete control
[22] = Rate 250 g/ha, Postemergence, scale of 0 to 10 where 0 is no effect and 10 is complete control
[23] = Rate 500 g/ha, Postemergence, scale 0 to 10, 0 no effect, 10 complete control
[24] = Rate 62 g/ha, headed Pre-emergence (flood test species), scale 0 to 10 (0 no effect, 10 complete control)
[25] = Rate 125 g/ha, Pre-emergence, flood test species, scale 0 to 10 where 0 is no effect and 10 is complete control
[26] = Rate 250 g/ha, Pre-emergence, flood-test species, scale 0 to 10, 0 is no effect, 10 is complete control
[27] = Rate 500 g/ha, Pre-emergence, flood test species, scale 0 to 10 (0 no effect, 10 complete control)

With `Cc1ccccc1-n1c(=O)on(C(=O)N(c2ccc(OC(F)(F)F)cc2)C(C)C)c1=O` [Compound 300] as the compound, how does the “Corn plant response rating” value [1, 17] read?
Its value is 0.

What about the “Corn plant response rating (0 to 10 scale)” value ([1]; Preemergence, Rate 125 g/ha) of the same compound?
The value was 0.

And the “Corn plant response rating” value [1, 18]?
Its value is 0.

And the “Corn plant response rating” value [1, 19]?
Its value is 0.

What about the “Corn plant response rating” value [1, 20] of the same compound?
Its value is 0.

And the “Corn plant response rating” value [1, 21]?
Its value is 0.

What about the “Plant response rating, Corn” value [1, 22] of the same compound?
Its value is 0.

What about the “Corn plant response rating” value [1, 23] of the same compound?
The value was 0.

And the “Wild oats plant response rating” value [2, 17]?
The value was 0.

What about the “Wild oats plant response rating (0 to 10 scale)” value ([2]; Preemergence, Rate 125 g/ha) of the same compound?
The value was 0.

And the “Wild oats plant response rating” value [2, 18]?
The value was 0.

What about the “Wild oats plant response rating” value [2, 19] of the same compound?
Its value is 3.

What about the “Wild oats plant response rating” value [2, 20] of the same compound?
Its value is 0.

And the “Wild oats plant response rating” value [2, 21]?
The value was 0.

What about the “Plant response rating, Wild oats” value [2, 22] of the same compound?
Its value is 0.

And the “B. signalgrass plant response rating” value [3, 17]?
Its value is 0.

And the “B. signalgrass plant response rating (0 to 10 scale, 0 is no effect, 10 is complete control)” value ([3]; Preemergence, Rate 125 g/ha)?
The value was 0.

What about the “B. signalgrass plant response rating” value [3, 18] of the same compound?
Its value is 0.

And the “B. signalgrass plant response rating” value [3, 19]?
Its value is 2.

And the “B. signalgrass plant response rating” value [3, 20]?
Its value is 0.

And the “B. signalgrass plant response rating” value [3, 21]?
The value was 0.

And the “Plant response rating, B. signalgrass” value [3, 22]?
Its value is 0.

What about the “B. signalgrass plant response rating” value [3, 23] of the same compound?
The value was 0.

And the “S. Flatsedge plant response rating” value [4, 24]?
Its value is 0.

And the “S. Flatsedge plant response rating” value [4, 25]?
The value was 0.

What about the “S. Flatsedge plant response rating” value [4, 26] of the same compound?
The value was 0.

What about the “S. Flatsedge plant response rating” value [4, 27] of the same compound?
The value was 0.

What about the “Rice plant response rating” value [5, 24] of the same compound?
Its value is 0.

And the “Rice plant response rating” value [5, 25]?
The value was 0.

What about the “Rice plant response rating” value [5, 26] of the same compound?
The value was 0.

What about the “Rice plant response rating” value [5, 27] of the same compound?
The value was 0.

What about the “Redroot pigweed plant response rating” value [6, 17] of the same compound?
The value was 0.

And the “Redroot pigweed plant response rating (0 to 10 scale)” value ([6]; Preemergence, Rate 125 g/ha)?
Its value is 0.

And the “Redroot pigweed plant response rating” value [6, 18]?
The value was 0.

What about the “Redroot pigweed plant response rating” value [6, 19] of the same compound?
Its value is 0.

And the “Redroot pigweed plant response rating” value [6, 20]?
The value was 0.

And the “Redroot pigweed plant response rating” value [6, 21]?
The value was 0.

And the “Plant response rating, Redroot pigweed” value [6, 22]?
Its value is 0.

What about the “Soybean plant response rating” value [7, 17] of the same compound?
Its value is 0.

And the “Soybean plant response rating (0 to 10 scale)” value ([7]; Preemergence, Rate 125 g/ha)?
Its value is 0.

And the “Soybean plant response rating” value [7, 18]?
The value was 0.

What about the “Soybean plant response rating” value [7, 19] of the same compound?
The value was 0.

And the “Soybean plant response rating” value [7, 20]?
The value was 1.

What about the “Soybean plant response rating” value [7, 21] of the same compound?
Its value is 2.

What about the “Plant response rating, Soybean” value [7, 22] of the same compound?
The value was 2.

What about the “Blackgrass plant response rating” value [8, 17] of the same compound?
The value was 0.

What about the “Blackgrass plant response rating (0 to 10 scale)” value ([8]; Preemergence, Rate 125 g/ha) of the same compound?
Its value is 0.

And the “Blackgrass plant response rating” value [8, 18]?
Its value is 0.

And the “Blackgrass plant response rating” value [8, 19]?
The value was 0.

And the “Blackgrass plant response rating” value [8, 20]?
The value was 0.

And the “Blackgrass plant response rating” value [8, 21]?
The value was 0.

And the “Plant response rating, Blackgrass” value [8, 22]?
The value was 0.

And the “Blackgrass plant response rating” value [8, 23]?
The value was 0.

And the “Velvetleaf plant response rating” value [9, 17]?
Its value is 0.

What about the “Velvetleaf plant response rating (0 to 10 scale)” value ([9]; Preemergence, Rate 125 g/ha) of the same compound?
The value was 0.

And the “Velvetleaf plant response rating” value [9, 18]?
The value was 0.

And the “Velvetleaf plant response rating” value [9, 19]?
The value was 0.

What about the “Velvetleaf plant response rating” value [9, 20] of the same compound?
The value was 0.

What about the “Velvetleaf plant response rating” value [9, 21] of the same compound?
The value was 0.

What about the “Plant response rating, Velvetleaf” value [9, 22] of the same compound?
The value was 0.

And the “Ducksalad plant response rating” value [10, 24]?
Its value is 0.

What about the “Ducksalad plant response rating” value [10, 25] of the same compound?
The value was 0.

What about the “Ducksalad plant response rating” value [10, 26] of the same compound?
The value was 0.

What about the “Ducksalad plant response rating” value [10, 27] of the same compound?
The value was 0.

What about the “Wheat plant response rating” value [11, 17] of the same compound?
The value was 0.

What about the “Wheat plant response rating (0 to 10 scale)” value ([11]; Preemergence, Rate 125 g/ha) of the same compound?
Its value is 0.

And the “Wheat plant response rating” value [11, 18]?
Its value is 0.

What about the “Wheat plant response rating” value [11, 19] of the same compound?
The value was 2.

And the “Wheat plant response rating” value [11, 20]?
Its value is 0.

And the “Wheat plant response rating” value [11, 21]?
The value was 0.

And the “Plant response rating, Wheat” value [11, 22]?
Its value is 0.

And the “Nutsedge plant response rating” value [12, 17]?
The value was 0.

And the “Nutsedge plant response rating (0 to 10 scale)” value ([12]; Preemergence, Rate 125 g/ha)?
The value was 0.

What about the “Nutsedge plant response rating” value [12, 18] of the same compound?
The value was 0.

And the “Nutsedge plant response rating” value [12, 19]?
Its value is 0.

What about the “Nutsedge plant response rating” value [12, 20] of the same compound?
Its value is 0.

And the “Nutsedge plant response rating” value [12, 21]?
The value was 0.

What about the “Plant response rating, Nutsedge” value [12, 22] of the same compound?
The value was 0.

What about the “Crabgrass plant response rating” value [13, 17] of the same compound?
Its value is 0.

And the “Crabgrass plant response rating (0 to 10 scale)” value ([13]; Preemergence, Rate 125 g/ha)?
Its value is 2.

What about the “Crabgrass plant response rating” value [13, 18] of the same compound?
The value was 4.

And the “Crabgrass plant response rating” value [13, 19]?
Its value is 7.

What about the “Crabgrass plant response rating” value [13, 20] of the same compound?
Its value is 0.

What about the “Crabgrass plant response rating” value [13, 21] of the same compound?
Its value is 0.

What about the “Plant response rating, Crabgrass” value [13, 22] of the same compound?
Its value is 0.

And the “Bedstraw plant response rating” value [14, 18]?
Its value is 0.

What about the “Bedstraw plant response rating” value [14, 19] of the same compound?
The value was 8.

And the “Bedstraw plant response rating” value [14, 20]?
The value was 0.

What about the “Bedstraw plant response rating” value [14, 21] of the same compound?
The value was 0.

What about the “Plant response rating, Bedstraw” value [14, 22] of the same compound?
Its value is 0.

And the “Bedstraw plant response rating” value [14, 23]?
The value was 0.

What about the “Morningglory plant response rating” value [15, 17] of the same compound?
Its value is 0.

What about the “Morningglory plant response rating (0 to 10 scale)” value ([15]; Preemergence, Rate 125 g/ha) of the same compound?
The value was 0.

And the “Morningglory plant response rating” value [15, 18]?
Its value is 0.

And the “Morningglory plant response rating” value [15, 19]?
The value was 0.

What about the “Morningglory plant response rating” value [15, 20] of the same compound?
Its value is 0.

And the “Morningglory plant response rating” value [15, 21]?
Its value is 0.

What about the “Plant response rating, Morningglory” value [15, 22] of the same compound?
The value was 0.

What about the “Giant foxtail plant response rating” value [16, 17] of the same compound?
The value was 0.

What about the “Giant foxtail plant response rating (0 to 10 scale)” value ([16]; Preemergence, Rate 125 g/ha) of the same compound?
Its value is 5.

What about the “Giant foxtail plant response rating” value [16, 18] of the same compound?
Its value is 9.

And the “Giant foxtail plant response rating” value [16, 19]?
Its value is 10.

And the “Giant foxtail plant response rating” value [16, 20]?
The value was 0.

What about the “Giant foxtail plant response rating” value [16, 21] of the same compound?
Its value is 0.

What about the “Plant response rating, Giant foxtail” value [16, 22] of the same compound?
The value was 0.
